Test results reported in patent publication US20220151993A1, “TREATMENT OF ANXIETY AND DEPRESSION” (NEW YORK UNIVERSITY, priority 2020, published 2022).

Legend:
[1] = system: patients with cancer-related psychiatric and existential distress; assay: Death Anxiety Scale (DAS), long-term follow-up; assay type: in vivo, human; conditions: single 0.3 mg/kg dose with psychotherapy, baseline 8.06
Protocol: (§1) The present example assesses the long-term effects of a single dose of psilocybin (0.3 mg/kg) in conjunction with psychotherapy in patients with cancer-related psychiatric and existential distress.
(§2) 29 participants were randomly assigned to one of two groups: psilocybin (0.3 mg/kg) on the first medication session followed by niacin (250 mg) on the second session (i.e. psilocybin-first group), or niacin (250 mg) on the first medication session followed by psilocybin (0.3 mg/kg) on the second session (i.e. niacin-first group). Psilocybin and niacin were administered in identically appearing gelatin capsules.
(§3) Participants received three 2-hour preparatory psychotherapy sessions in order to review the purpose and intention of participation in the study, treatment goals, and structure of the treatment sessions. Medications were administered in 8-hour treatment sessions which included a discussion of the participant's subjective experience with the treatment team to consolidate the memory of the experience and to begin the process of post-integrative psychotherapy. Participants also received three 2-hour post-medication integration sessions (repeated after the second dosing session) to further consolidate the memory of the experience and to continue the process of psychological integration. All psychotherapy treatment sessions were delivered by a dyadic therapy team trained in a blend of psychotherapies with an evidence base to support their use in cancer patients (drawing upon principles of palliative care therapy, existential psychotherapy, cognitive-behavioural therapy, psychoanalysis therapy, and transpersonal psychology) and were taught about the safety and clinical pharmacology of psilocybin. […]
Cancer-related existential distress (demoralization, hopelessness, attitudes and effects associated with disease progression and death) was assessed using the following methods: • The Death Anxiety Scale (DAS) (Templer, 1970)—a 15-item measure that has been used most frequently to assess death anxiety. Items are scored “true” and “false” and then scored as one and zero, respectively. […]

[2] = system: patients with cancer-related psychiatric and existential distress; assay: Beck Depression Inventory-II (BDI-II), long-term follow-up; assay type: in vivo, human; conditions: single 0.3 mg/kg dose with psychotherapy, baseline 14.19
Protocol: as §1, §2, §3
Primary outcomes (anxiety and depression) were measured according to the following methods: • Hospital Anxiety and Depression Scale (HADS) (Zigmond and Snaith, 1983)—this is widely used in hospital settings to screen for the severity of anxiety and depression. […] Subscale scores can be calculated for depression (HADS-D) and anxiety (HADS-A). […]

[3] = system: patients with cancer-related psychiatric and existential distress; assay: Lasting negative or adverse effects reported during long-term follow-up; assay type: in vivo, human; conditions: LTFU period; 13 of 14 participants provided information
Protocol: as §2
Participants received three 2-hour preparatory psychotherapy sessions in order to review the purpose and intention of participation in the study, treatment goals, and structure of the treatment sessions. Medications were administered in 8-hour treatment sessions which included a discussion of the participant's subjective experience with the treatment team to consolidate the memory of the experience and to begin the process of post-integrative psychotherapy. Participants also received three 2-hour post-medication integration sessions (repeated after the second dosing session) to further consolidate the memory of the experience and to continue the process of psychological integration. […]

[4] = system: patients with life-threatening cancer; conditions: 6-month follow up; cited from earlier work
[5] = mean score at 3.2 years, p < 0.01 vs baseline

## CN(C)CCc1c[nH]c2cccc(OP(=O)(O)O)c12 [psilocybin, [3-(2-dimethylaminoethyl)-1H-indol-4-yl] dihydrogen phosphate]
[1]; [5]
  Death anxiety: 5.68
[1]; mean score at 4.5 years, p < 0.05 vs baseline
  Death anxiety: 5.75
[1]; mean score at 6.5-8 months, p < 0.01 vs baseline
  Death anxiety: 6.09
[2]; [5]
  Beck Depression: 7.75
[2]; mean score at 4.5 years, p < 0.001 vs baseline
  Beck Depression: 5.45
[2]; mean score at 6.5-8 months, p < 0.001 vs baseline
  Beck Depression: 5.09
[3]
  lasting negative or adverse effects from the psilocybin-assisted therapy experiences: None of the participants reported lasting negative or adverse effects
[4]
  participants continuing to show decreases in depressed mood and anxiety: about 80%
